This is an account of results in patent US20080096848A1, “Substituted N-Aryl-9-Oxo-9H-Fluorene-1-Carboxamides and Analogs as Activators of Caspases and Inducers of Apoptosis” (CYTOVIA INC., priority 2004, published 2008).

Molecules are shown by their SMILES. Where two headings read alike, the source gives them in different places.

The assay concerns T-47D. In words: Caspase cascade activation assay (Ac-DEVD-R110 fluorogenic substrate) in T-47D cells. In kind it is cell-based, Human. Conditions: 24 h incubation; for Caspase activity (Ratio): ratio of net RFU (T=3 h) of test compound to control, 0.16 to 10 μM final; for EC50: sigmoidal dose-response, read-out: Caspase potency EC50. On the procedure: Human breast cancer cell lines T-47D was grown according to media component mixtures designated by American Type Culture Collection+10% FCS (Invitrogen Corporation), in a 5% CO2-95% humidity incubator at 37° C. T-47D and ZR-75-1 cells were maintained at a cell density between 30 and 80% confluency and for HL-60 at a cell density of 0.1 to 0.6×10^6 cells/mL. Cells were harvested at 600×g and resuspended at 0.65×10^6 cells/mL into appropriate media+10% FCS. An aliquot of 45 μL of cells was added to a well of a 96-well microtiter plate containing 5 μL of a 10% DMSO in RPMI-1640 media solution containing 1.6 to 100 μM of N-(2-methylphenyl)-9-oxo-9H-fluorene-1-carboxamide or other test compound (0.16 to 10 μM final). An aliquot of 45 μL of cells was added to a well of a 96-well microtiter plate containing 5 μL of a 10% DMSO in RPMI-1640 media solution without test compound as the control sample. The samples were mixed by agitation and then incubated at 37° C. for 24 h in a 5% CO2-95% humidity incubator. After incubation, the samples were removed from the incubator and 50 μL of a solution containing 20 μM of N—(Ac-DEVD)-N′-ethoxycarbonyl-R110 fluorogenic substrate (SEQ ID NO:1) (Cytovia, Inc.; U.S. Pat. No. 6,335,429), 20% sucrose (Sigma), 20 mM DTT (Sigma), 200 mM NaCl (Sigma), 40 mM Na PIPES buffer pH 7.2 (Sigma), and 500 μg/mL lysolecithin (Calbiochem) was added. The samples were mixed by agitation and incubated at room temperature. Using a fluorescent plate reader (Model 1420 Wallac Instruments), an initial reading (T=0) was made about 1-2 min after addition of the substrate solution, employing excitation at 485 nm and emission at 530 nm, to determine the background fluorescence of the control sample. After about 3 h of incubation, the samples were read for fluorescence as above (T=3 h).
The Relative Fluorescence Unit values (RFU) were used to calculate the sample readings as follows: RFU(T=3h)−Control RFU(T=0)=Net RFU(T=3h)
The activity of caspase cascade activation was determined by the ratio of the net RFU value for N-(2-methylphenyl)-9-oxo-9H-fluorene-1-carboxamide and other test compounds to that of control samples. The EC50 (nM) was determined by a sigmoidal dose-response calculation (Prism 2.0, GraphPad Software Inc.).

Take `O=C(Nc1ccccc1N1CCOCC1)c1cccc2c1C(=O)c1ccccc1-2` [Example 1, N-(2-Morpholinophenyl)-9-oxo-9H-fluorene-1-carboxamide]: the “Caspase activity (Ratio)” value is 3.1. For the same molecule, where the note is “Homo sapiens, T47D, 24 h”, the EC50 was determined as 5.67 µM.
`O=C(Nc1ccccc1-n1cccc1)c1cccc2c1C(=O)c1ccccc1-2` [Example 2, N-(2-(1H-Pyrrolo-1-yl)-phenyl)-9-oxo-9H-fluorene-1-carboxamide]: the “Caspase activity (Ratio)” value was 4.2 and the EC50 was found to be 2.23 µM.
For the molecule `O=C(Nc1ccccc1N1CCCCC1)c1cccc2c1C(=O)c1ccccc1-2` [Example 3, 9-Oxo-N-(2-(piperidin-1-yl)-phenyl)-9H-fluorene-1-carboxamide], the “Caspase activity (Ratio)” value was found to be 7.4. Besides, the concentration giving a half-maximal response (EC50) (Homo sapiens, T47D, 24 h) came out at 1.92 µM.
The matching figures for `O=C(Nc1ccccc1-n1ccnc1)c1cccc2c1C(=O)c1ccccc1-2` [Example 4, N-(2-(1H-Imidazol-1-yl)-phenyl)-9-oxo-9H-fluorene-1-carboxamide]: 1.4 and greater than 10 µM.
As for `O=C(Nc1ccccn1)c1cccc2c1C(=O)c1ccccc1-2` [Example 5, 9-Oxo-N-(pyridin-2-yl)-9H-fluorene-1-carboxamide], the “Caspase activity (Ratio)” value worked out at 1.2. The concentration giving a half-maximal response (EC50) (Homo sapiens, T47D, 24 h) was greater than 10 µM.
On the same counts, the results for `O=C(Nc1ccccc1)c1cccc2c1C(=O)c1ccccc1-2` [Example 6, 9-Oxo-N-phenyl-9H-fluorene-1-carboxamide] are 1.9 and greater than 10 µM.
On the same counts, the results for `Cc1cccc(C)c1NC(=O)c1cccc2c1C(=O)c1ccccc1-2` [Example 7, N-(2,6-Dimethylphenyl)-9-oxo-9H-fluorene-1-carboxamide] are 1.4 and greater than 10 µM.
The matching figures for `O=C(Nc1ccccc1-c1nnn[nH]1)c1cccc2c1C(=O)c1ccccc1-2` [Example 8, N-(2-(1H-tetrazol-5-yl)phenyl)-9-oxo-9H-fluorene-1-carboxamide]: 1.1 and greater than 10 µM.
With `Cc1cccnc1NC(=O)c1cccc2c1C(=O)c1ccccc1-2` [Example 11, N-(3-Methylpyridin-2-yl)-9-Oxo-9H-fluorene-1-carboxamide], the “Caspase activity (Ratio)” value was 1.2. Also, the EC50 (Homo sapiens, T47D, 24 h) is greater than 10 µM.
On the same counts, the results for `O=C(Nc1ccccc1CBr)c1cccc2c1C(=O)c1ccccc1-2` [Example 14, N-(2-Bromomethylphenyl)-9-oxo-9H-fluorene-1-carboxamide] are 5.7 and 2.88 µM.
The matching figures for `O=C(Nc1ccccc1-n1cccn1)c1cccc2c3c([nH]c12)CCCC3` [Example 16, N-(2-(1H-pyrazol-1-yl)phenyl)-6,7,8,9-tetrahydro-5H-carbazole-1-carboxamide]: 0.8 and greater than 10 µM.
On the same counts, the results for `Cc1ccccc1N(C)C(=O)c1cccc2c1C(=O)c1ccccc1-2` [Example 17, N-Methyl-N-(2-methylphenyl)-9-oxo-9H-fluorene-1-carboxamide] are 1.4 and greater than 10 µM.
Take `CC1CCCCC1NC(=O)c1cccc2c1C(=O)c1ccccc1-2` (stereo not shown) [Example 18, N-(2-Methylcyclohexyl)-9-oxo-9H-fluorene-1-carboxamide]: the “Caspase activity (Ratio)” value worked out at 1.8. For the same molecule, the 50% effective concentration (EC50) (Homo sapiens, T47D, 24 h) is greater than 10 µM.
On the same counts, the results for `O=C(Nc1ccccc1-n1cccn1)c1cccc2c1OCC2` [Example 19, N-(2-(1H-pyrazol-1-yl)phenyl)-2,3-dihydrobenzofuran-7-carboxamide] are 0.9 and greater than 10 µM.
On the same counts, the results for `Cc1ccncc1NC(=O)c1cccc2c1C(=O)c1ccccc1-2` [Example 21, N-(4-Methylpyridin-3-yl)-9-oxo-9H-fluorene-1-carboxamide] are 0.8 and greater than 10 µM.
The matching figures for `CN1CCN(Cc2ccccc2NC(=O)c2cccc3c2C(=O)c2ccccc2-3)CC1` [Example 22, N-(2-(4-Methylpiperazin-1-yl-methyl)phenyl)-9-oxo-9H-fluorene-1-carboxamide]: 1.0 and greater than 10 µM.
Take `O=C(Nc1ccccc1-n1cccn1)c1cccc2oc3ccccc3c12` [Example 23, N-(2-(1H-pyrazol-1-yl)phenyl)-dibenzofuran-1-carboxamide]: the “Caspase activity (Ratio)” value worked out at 1.1. For the same molecule, for the setting “Homo sapiens, T47D, 24 h”, the EC50 is greater than 10 µM.
For the molecule `CN(C)Cc1ccccc1NC(=O)c1cccc2c1C(=O)c1ccccc1-2.Cl` [Example 24, N-(2-Dimethylaminomethyl-phenyl)-9-oxo-9H-fluorene-1-carboxamide Hydrochloride], the “Caspase activity (Ratio)” value is given as 1.8. For the same molecule, the EC50 (Hydrochloride) is greater than 10 µM.
For the molecule `O=C(Nc1ccccc1[N+](=O)[O-])c1cccc2c1C(=O)c1ccccc1-2` [Example 25, N-(2-Nitrophenyl)-9-oxo-9H-fluorene-1-carboxamide], the “Caspase activity (Ratio)” value was 2.2. For the setting “Homo sapiens, T47D, 24 h”, the EC50 is 2.51 µM.
The matching figures for `Nc1ccccc1NC(=O)c1cccc2c1C(=O)c1ccccc1-2` [Example 26, N-(2-Amino-phenyl)-9-oxo-9H-fluorene-1-carboxamide]: 1.2 and greater than 10 µM.
As for `Nc1ccc2c(c1)C(=O)c1c(C(=O)Nc3ccccc3-n3cccn3)cccc1-2` [Example 30, 7-Amino-N-(2-(1H-pyrazol-1-yl)phenyl)-9-oxo-9H-fluorene-1-carboxamide], the “Caspase activity (Ratio)” value is 4.4. Also, the 50% effective concentration (EC50) (Homo sapiens, T47D, 24 h) was 0.881 µM.
The matching figures for `O=C(Nc1ccccc1-n1cccn1)c1ccc([N+](=O)[O-])c2c1C(=O)c1cc([N+](=O)[O-])ccc1-2` [Example 31, 4,7-Dinitro-N-(2-(1H-pyrazol-1-yl)phenyl)-9-oxo-9H-fluorene-1-carboxamide]: 2.3 and 6.05 µM.
Take `O=C(Nc1ccccc1-n1cccn1)c1cccc2c1-c1ccccc1S2(=O)=O` [Example 33, 9,9-Dioxo-N-(2-(1H-pyrazol-1-yl)phenyl)-dibenzothiophene-1-carboxamide]: the “Caspase activity (Ratio)” value is 1.6 and the EC50 was greater than 10 µM.
For `O=C(Nc1ccccc1-n1cccn1)c1cccc2sc3c(c12)C(=O)CC=C3` [Example 34, 9-Oxo-N-(2-(1H-pyrazol-1-yl)phenyl)-dibenzothiophene-1-carboxamide], the “Caspase activity (Ratio)” value came out at 1.2. The EC50 (Homo sapiens, T47D, 24 h) is greater than 10 µM.
On the same counts, the results for `O=C(Nc1ccccc1O)c1cccc2c1C(=O)c1ccccc1-2` [Example 35, N-(2-Hydroxy-phenyl)-9-oxo-9H-fluorene-1-carboxamide] are 1.3 and greater than 10 µM.
The matching figures for `Cc1ccccc1NC(=O)c1cccc2c1C(O)c1ccccc1-2` (stereo not shown) [Example 36, 9-Hydroxy-N-(2-methylphenyl)-9H-fluorene-1-carboxamide]: 3.3 and 3.7 µM.
Consider `O=C(Nc1cccc2ccccc12)c1cccc2c1C(=O)c1ccccc1-2` [N-(1-Naphthalen-1-yl)-9-oxo-9H-fluorene-1-carboxamide], for which the “Caspase activity (Ratio)” value amounted to 3.2 and the EC50 stood at 6 µM.
In the case of `COC(=O)c1ccccc1NC(=O)c1cccc2c1C(=O)c1ccccc1-2` [N-(2-(Methoxycarbonyl)phenyl)-9-oxo-9H-fluorene-1-carboxamide], the “Caspase activity (Ratio)” value is listed as 7.1. In addition, the EC50 (Homo sapiens, T47D, 24 h) worked out at 0.419 µM.
The matching figures for `O=C(Nc1ccccc1Br)c1cccc2c1C(=O)c1ccccc1-2` [N-(2-Bromophenyl)-9-oxo-9H-fluorene-1-carboxamide]: 9.1 and 3.52 µM.
`O=C(Nc1ccccc1Cl)c1cccc2c1C(=O)c1ccccc1-2` [N-(2-Cholorophenyl)-9-oxo-9H-fluorene-1-carboxamide]: the “Caspase activity (Ratio)” value is 7.4 and the EC50 amounted to 1.05 µM.
As for `N#Cc1ccccc1NC(=O)c1cccc2c1C(=O)c1ccccc1-2` [N-(2-Cyanophenyl)-9-oxo-9H-fluorene-1-carboxamide], the “Caspase activity (Ratio)” value is 2.3. Also, the EC50 (Homo sapiens, T47D, 24 h) was found to be 2 µM.
With `O=C(Nc1ccccc1OC(F)F)c1cccc2c1C(=O)c1ccccc1-2` [N-(2-Difluoromethoxyphenyl)-9-oxo-9H-fluorene-1-carboxamide], the “Caspase activity (Ratio)” value is 5.9. The EC50 (Homo sapiens, T47D, 24 h) was 0.688 µM.

By EC50 is commonly meant the midpoint of the concentration-response curve.
